Assay results from ChEMBL document CHEMBL1201862, “PubChem BioAssay data set” (2004).
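Results reflect a 48-hour exposure of cells in 96-well plates to compound at five concentrations. At the GI50, growth is halved.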 The source made the active and inactive calls. No stated cut-off is given here; in the data, active = GI50 up to about 1.1 µM and inactive = higher.

What was measured:
Assay in all cases: inhibition of tumour cell growth, NCI panel, 48 h
K562 = tested on: K562
786-0 = tested on: 786-0
BT-549 = tested on: BT-549
MCF7 = tested on: MCF7
SNB-19 = tested on: SNB-19
SN12C = tested on: SN12C
HOP-92 = tested on: HOP-92
T47D = tested on: T47D
CCRF-CEM = tested on: CCRF-CEM
SF-295 = tested on: SF-295
OVCAR-4 = tested on: OVCAR-4
ACHN = tested on: ACHN
SK-MEL-28 = tested on: SK-MEL-28
OVCAR-5 = tested on: OVCAR-5
MDA-MB-231 = tested on: MDA-MB-231
PC-3 = tested on: PC-3
HCC 2998 = tested on: HCC 2998
A498 = tested on: A498
Hs-578T = tested on: Hs-578T
Malme-3M = tested on: Malme-3M

Measured: GI50

CCOc1cc(NC(C)=O)ccc1C(=O)NN1C(=O)C(Oc2ccccc2)C1c1ccc(O)c(OC)c1 (configuration not stated)
inactive: K562 31.3 µM | 786-0 43.8 µM | BT-549 28.4 µM | MCF7 39.5 µM | SNB-19 > 100 µM | SN12C 28 µM | HOP-92 6.04 µM | T47D 14.4 µM | CCRF-CEM 22.5 µM | SF-295 66.4 µM | OVCAR-4 31.3 µM | ACHN 93.5 µM | SK-MEL-28 79.4 µM | OVCAR-5 > 100 µM | MDA-MB-231 34 µM | PC-3 35.2 µM

Nc1nc(N)c2nnn(C[C@H]3CC[C@@H](CO)C3)c2n1
inactive: K562 > 100 µM | 786-0 > 100 µM | BT-549 > 100 µM | MCF7 > 100 µM | SNB-19 > 100 µM | SN12C 38.5 µM | HCC 2998 > 100 µM | HOP-92 > 100 µM | A498 > 100 µM | CCRF-CEM > 100 µM | SF-295 > 100 µM | ACHN > 100 µM | SK-MEL-28 > 100 µM | Hs-578T > 100 µM | Malme-3M > 100 µM | OVCAR-5 > 100 µM | MDA-MB-231 > 100 µM | PC-3 > 100 µM

Fc1nc(-c2c3ccccc3c3sc4ccccc4n23)nc(N2CCOCCOCCOCCOCC2)n1
inactive: K562 > 100 µM | 786-0 32.8 µM | BT-549 87.1 µM | MCF7 > 100 µM | SNB-19 35.6 µM | SN12C > 100 µM | HCC 2998 > 100 µM | HOP-92 20.9 µM | A498 91.4 µM | CCRF-CEM 54.5 µM | SF-295 63 µM | OVCAR-4 > 100 µM | ACHN > 100 µM | SK-MEL-28 > 100 µM | Hs-578T 37.3 µM | Malme-3M > 100 µM | OVCAR-5 > 100 µM | MDA-MB-231 86.9 µM | PC-3 > 100 µM

CC(=O)OC1=C(CC(C)(C)C)C(=O)c2ccccc2C1=O
inactive: K562 18.5 µM | 786-0 39.6 µM | MCF7 39.5 µM | SNB-19 42.6 µM | HCC 2998 40.2 µM | T47D 44.2 µM | A498 13.5 µM | CCRF-CEM 19.3 µM | SF-295 22.7 µM | OVCAR-4 37.8 µM | ACHN 35.6 µM | SK-MEL-28 42.4 µM | Hs-578T 14.5 µM | MDA-MB-231 87.7 µM | PC-3 29.1 µM

[O-][n+]1c2ccccc2[n+]([O-])c2ccccc21
inactive: K562 > 100 µM | 786-0 > 100 µM | MCF7 48.1 µM | SNB-19 86.3 µM | SN12C > 100 µM | T47D 35.3 µM | A498 > 100 µM | CCRF-CEM 4.32 µM | SF-295 > 100 µM | OVCAR-4 > 100 µM | ACHN 61 µM | SK-MEL-28 > 100 µM | Hs-578T > 100 µM | Malme-3M > 100 µM | OVCAR-5 > 100 µM | MDA-MB-231 44.5 µM | PC-3 > 100 µM

CN(C)CCNC1=CC(=O)c2nc3ccccc3c3ccnc1c23
inactive: K562 1.19 µM | 786-0 2.81 µM | BT-549 7.26 µM | MCF7 3.75 µM | SNB-19 5.01 µM | SN12C 6.49 µM | HCC 2998 4.47 µM | HOP-92 11.7 µM | CCRF-CEM 3.88 µM | SF-295 4.47 µM | OVCAR-4 3.57 µM | ACHN 3.05 µM | SK-MEL-28 11.4 µM | Hs-578T 4.95 µM | Malme-3M 3 µM | OVCAR-5 5.74 µM | MDA-MB-231 3.63 µM | PC-3 3.36 µM

N#Cc1c(N)c(C#N)c2c(c1-c1ccc(Cl)cc1)COc1ccccc1-2
inactive: K562 16.5 µM | 786-0 3.02 µM | BT-549 29.9 µM | MCF7 29 µM | SNB-19 14.5 µM | SN12C 12.4 µM | HCC 2998 17.4 µM | HOP-92 15.3 µM | T47D 18.8 µM | A498 18.2 µM | CCRF-CEM 16.5 µM | OVCAR-4 11.1 µM | ACHN 13.7 µM | SK-MEL-28 16.5 µM | Malme-3M 22 µM | OVCAR-5 24.9 µM | MDA-MB-231 24.2 µM | PC-3 16.8 µM

Cc1nc2nn[nH]n2c(=O)c1CCO
inactive: K562 > 100 µM | 786-0 > 100 µM | MCF7 > 100 µM | SNB-19 > 100 µM | SN12C > 100 µM | HCC 2998 > 100 µM | HOP-92 > 100 µM | T47D > 100 µM | A498 > 100 µM | CCRF-CEM > 100 µM | SF-295 > 100 µM | OVCAR-4 > 100 µM | ACHN > 100 µM | SK-MEL-28 > 100 µM | Hs-578T > 100 µM | Malme-3M > 100 µM | OVCAR-5 > 100 µM | MDA-MB-231 > 100 µM | PC-3 > 100 µM

N#CC(NNC(=O)c1c(Cl)c(Cl)c(Cl)c(Cl)c1-c1nc2cc(C(=O)c3ccccc3)ccc2[nH]1)c1cccc(Oc2ccccc2)c1 (configuration not stated)
inactive: K562 27.5 µM | 786-0 22 µM | BT-549 19.1 µM | MCF7 20.3 µM | SNB-19 26.6 µM | SN12C 23.9 µM | HOP-92 17.5 µM | T47D 18.9 µM | A498 20.8 µM | CCRF-CEM 15.6 µM | SF-295 28.5 µM | OVCAR-4 18.6 µM | ACHN 25.6 µM | SK-MEL-28 24.3 µM | OVCAR-5 28.7 µM | MDA-MB-231 19 µM | PC-3 18.8 µM

CCOC(=O)C(=[N+]=[N-])C(=O)C1(C(=O)OCC)CCN(C(=O)c2ccccc2)C1=O (configuration not stated)
inactive: 786-0 > 100 µM | MCF7 > 100 µM | SNB-19 > 100 µM | SN12C > 100 µM | HOP-92 > 100 µM | T47D > 100 µM | A498 > 100 µM | CCRF-CEM > 100 µM | SF-295 > 100 µM | OVCAR-4 > 100 µM | ACHN > 100 µM | Hs-578T > 100 µM | Malme-3M > 100 µM | OVCAR-5 > 100 µM | MDA-MB-231 > 100 µM | PC-3 > 100 µM

CCOC(=O)C1C(c2ccc3c(c2)OCO3)c2c(n[nH]c2O)CC1(O)OCC (configuration not stated)
inactive: 786-0 > 100 µM | MCF7 > 100 µM | SNB-19 > 10 µM | SN12C > 100 µM | HCC 2998 > 100 µM | HOP-92 > 100 µM | T47D > 100 µM | A498 > 100 µM | CCRF-CEM > 100 µM | SF-295 > 100 µM | OVCAR-4 > 100 µM | ACHN > 100 µM | SK-MEL-28 > 100 µM | Hs-578T > 100 µM | Malme-3M > 100 µM | OVCAR-5 > 100 µM | MDA-MB-231 > 100 µM | PC-3 > 100 µM

Cc1ccc(Nc2sc(C)cc2C#N)c([N+](=O)[O-])c1
inactive: K562 > 100 µM | 786-0 > 100 µM | BT-549 > 100 µM | MCF7 > 100 µM | SNB-19 > 100 µM | SN12C > 100 µM | HCC 2998 > 100 µM | HOP-92 88.9 µM | T47D > 100 µM | A498 > 100 µM | CCRF-CEM 99.8 µM | SF-295 > 100 µM | OVCAR-4 > 100 µM | ACHN > 100 µM | SK-MEL-28 > 100 µM | Malme-3M > 100 µM | OVCAR-5 > 100 µM | MDA-MB-231 > 100 µM | PC-3 > 100 µM

CC(=O)Nc1c(C(=N)C#N)ncn1CCO
inactive: K562 > 100 µM | 786-0 > 100 µM | MCF7 > 100 µM | SNB-19 > 100 µM | SN12C > 100 µM | HCC 2998 > 100 µM | HOP-92 > 100 µM | T47D > 100 µM | A498 > 100 µM | CCRF-CEM > 100 µM | SF-295 > 100 µM | OVCAR-4 > 100 µM | ACHN > 100 µM | SK-MEL-28 > 100 µM | Hs-578T > 100 µM | Malme-3M > 100 µM | OVCAR-5 > 100 µM | MDA-MB-231 > 100 µM | PC-3 > 100 µM

O=C(CC(O)(C(F)(F)F)C(F)(F)Cl)CC(O)(C(F)(F)F)C(F)(F)Cl (configuration not stated)
inactive: K562 2.76 µM | 786-0 3.47 µM | MCF7 2.79 µM | SNB-19 2.22 µM | SN12C 1.5 µM | HCC 2998 3.04 µM | HOP-92 1.71 µM | T47D 1.49 µM | A498 2.29 µM | CCRF-CEM 3.86 µM | SF-295 2.4 µM | OVCAR-4 1.42 µM | ACHN 1.77 µM | SK-MEL-28 4.34 µM | Hs-578T 2.07 µM | Malme-3M 1.14 µM | MDA-MB-231 2.05 µM | PC-3 1.64 µM

S=C(Nc1ccc(Cl)cc1)c1ccc(CN2CCCCC2)s1
inactive: K562 2.09 µM | 786-0 4.25 µM | BT-549 8.26 µM | MCF7 13.9 µM | SN12C 11.9 µM | HCC 2998 7.16 µM | A498 10.8 µM | CCRF-CEM 3.17 µM | OVCAR-4 12.5 µM | ACHN 4.93 µM | SK-MEL-28 4.24 µM | Hs-578T 37.9 µM | OVCAR-5 1.56 µM | PC-3 18.5 µM

CC1(C)OCC2(CO1)CSCCCSCC1(COC(C)(C)OC1)CSCCCSC2
inactive: K562 > 100 µM | 786-0 > 100 µM | BT-549 > 100 µM | MCF7 > 10 µM | SNB-19 > 100 µM | SN12C > 100 µM | HCC 2998 > 100 µM | HOP-92 > 100 µM | T47D > 100 µM | CCRF-CEM > 100 µM | SF-295 > 100 µM | OVCAR-4 > 100 µM | SK-MEL-28 > 100 µM | OVCAR-5 > 100 µM | MDA-MB-231 > 100 µM | PC-3 > 100 µM
